Data published in ChEMBL document CHEMBL5729548, “ACLY inhibitors and uses thereof” (2023).

Molecular target: T1, ATP-citrate synthase (Homo sapiens, UniProt P53396)
T1 sequence (P53396 whole entry): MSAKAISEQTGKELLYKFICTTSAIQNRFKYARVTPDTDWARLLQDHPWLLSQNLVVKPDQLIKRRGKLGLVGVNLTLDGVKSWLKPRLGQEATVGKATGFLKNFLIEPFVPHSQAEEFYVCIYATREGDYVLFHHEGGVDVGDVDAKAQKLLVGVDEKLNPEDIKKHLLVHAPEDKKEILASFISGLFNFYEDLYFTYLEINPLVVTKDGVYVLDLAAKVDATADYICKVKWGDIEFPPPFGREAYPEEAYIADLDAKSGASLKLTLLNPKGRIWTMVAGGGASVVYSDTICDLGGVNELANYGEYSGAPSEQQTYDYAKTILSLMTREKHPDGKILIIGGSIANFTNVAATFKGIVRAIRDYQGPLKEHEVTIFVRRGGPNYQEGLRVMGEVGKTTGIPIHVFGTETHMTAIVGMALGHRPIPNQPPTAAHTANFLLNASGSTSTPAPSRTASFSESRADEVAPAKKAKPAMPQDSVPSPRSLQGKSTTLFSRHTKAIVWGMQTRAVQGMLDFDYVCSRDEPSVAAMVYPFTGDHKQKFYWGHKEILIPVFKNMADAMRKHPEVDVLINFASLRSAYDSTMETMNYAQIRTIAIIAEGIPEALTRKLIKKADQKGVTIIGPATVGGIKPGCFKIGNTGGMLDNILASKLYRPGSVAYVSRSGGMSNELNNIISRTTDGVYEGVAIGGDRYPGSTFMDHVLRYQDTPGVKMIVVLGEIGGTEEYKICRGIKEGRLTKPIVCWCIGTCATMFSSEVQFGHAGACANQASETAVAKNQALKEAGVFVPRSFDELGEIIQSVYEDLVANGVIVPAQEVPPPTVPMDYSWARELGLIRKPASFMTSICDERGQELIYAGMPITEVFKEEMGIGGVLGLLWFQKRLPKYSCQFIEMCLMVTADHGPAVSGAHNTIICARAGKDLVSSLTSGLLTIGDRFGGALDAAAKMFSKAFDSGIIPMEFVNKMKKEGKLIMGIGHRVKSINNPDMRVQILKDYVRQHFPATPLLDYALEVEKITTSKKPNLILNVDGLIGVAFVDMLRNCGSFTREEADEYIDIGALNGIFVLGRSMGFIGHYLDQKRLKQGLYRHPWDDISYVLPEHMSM
Assay: ADP-Glo Assay: Materials and Instruments Used in the ADP-Glo AssayVendor Cat No.Materials ACL Sino Biological 11769-H07BCoANa2 Sigma C3144Potassium Citrate Sigma 89306ATP Promega V915BADP-GloTM Kinase Assay Promega V9102kitHEPES Life Technologies 15630080MgCl2 Sigma M1028Brij 35 detergent Merck 203728DTT Sigma 646563DMSO MP 196055Optiplate-384, White 384- Perkin Elmer 6007290well384 dilution …

In the case of `O=C(c1cc(Cl)c(O)c(S(=O)(=O)Nc2cc(-c3cc4ccccc4s3)c(F)cc2OC(F)(F)F)c1)N1CCC1`, the IC50 is reported as under 0.05 µM.
